Assay results published in publication PMC10600239, “Selective MCL-1 inhibitor ABBV-467 is efficacious in tumor models but is associated with cardiac troponin increases in patients” (Communications Medicine, 2023).
Where “and” joins values, the source holds several entries; their conditions need not be identical. Equal entries are not always repeated. Where two headings read alike, the source gives them in different places.

Tests used:
[1] = 4-week (5-dose) IV infusion toxicity study with 4-week recovery; conditions: rats
Protocol: range-finding studies, and 4-we ek (5-dose) with recovery GLP studies in rats and dogs. For all studies, test item was
administered once weekly by 30 -minute IV infusion. Standard GLP endpoints were assessed including in- life (body weights,
clinical observations, eye exams), electro cardiograms (dog s only), clinical pathology (hematology, clinical chemistry, and
coagulation) and anatomic pathology (macroscopic and mic roscopic observations and organ weights).
Study design was generally in compliance with FDA Redbook
Guidance IV.C. 3.a. and IV.C.3. b. sections on short-term toxicity studies with rodents and non- rodents, respectively (viz.
Studies were appr oved by the animal use committee of Charles River Laboratories, Mattawan, MI. No animals or
data were excluded from analysis. Healthy dogs, as determined by veterinary physical examination and clinical pathology,
were randomized between dose groups using laboratory information management softw are.

BCL-W = molecular target: T1, BCL-W (Homo sapiens, UniProt Q92843); assay: Time-resolved FRET binding assay
T1 sequence (Q92843 1-193): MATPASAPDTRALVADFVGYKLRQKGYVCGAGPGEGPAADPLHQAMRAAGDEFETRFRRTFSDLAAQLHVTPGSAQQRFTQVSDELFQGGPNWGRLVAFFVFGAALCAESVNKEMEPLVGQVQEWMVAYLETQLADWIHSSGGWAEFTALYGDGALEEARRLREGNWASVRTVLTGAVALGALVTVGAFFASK
Protocol: (§1) Binding affinities for MCL-1, BCL-2, BCL-XL, BCL-W, and BCL2-A1 were determined using a time-resolved fluorescence resonance energy transfer (FRET) assay. Test compounds were serially diluted in DMSO starting at […] (20× starting concentration; 100% DMSO followed by a 1:10 dilution of the compound DMSO plate into assay buffer); 10 µL of the compound in 10% DMSO was then transferred into a 384-well plate (low-volume Corning #3673 assay plate). Glutathione S-transferase (GST)-tagged recombinant BCL-2, BCL-XL, MCL-1, BCL-W, or BCL2-A1 protein (1 nM each) were mixed with 100 nM Oregon Green™-labeled f-BAK peptide probe and 1 nM Tb-labeled anti-GST antibody were mixed. Then 10 µL of a 2× protein/probe/antibody mix was added to each well of increasing concentrations of test compound in assay buffer (20 mM potassium phosphate, pH 7.6, 50 mM NaCl, 1 mM ethylenediaminetetraacetic acid disodium salt dihydrate, 0.05% pluronic acid F-68, 1 mM DL-dithiothreitol) at room temperature (final concentrations listed in Supplementary Table S2). The samples were then mixed on a shaker for 1 min and incubated for an additional 1 h at room temperature. For each assay plate, a probe/antibody and protein/antibody/probe mixture were included as a negative and a positive control, respectively. Fluorescence was measured on the EnVision™ (Perkin Elmer) using a 340/35-nm excitation filter and 520/525- (F-Bak) and 495/510-nm (Tb-labeled anti-glutathione S-transferase [GST] antibody) emission filters. Dissociation constants were determined using Wang’s equation[35]. The time-resolved FRET assay can be performed in the presence of varying concentrations of human serum to determine apparent half-maximal inhibitory concentration after serum protein binding.

BCL-XL = BCL-XL (Homo sapiens, UniProt Q07817); assay: Time-resolved FRET binding assay
Chain of BCL-XL (Q07817 whole entry): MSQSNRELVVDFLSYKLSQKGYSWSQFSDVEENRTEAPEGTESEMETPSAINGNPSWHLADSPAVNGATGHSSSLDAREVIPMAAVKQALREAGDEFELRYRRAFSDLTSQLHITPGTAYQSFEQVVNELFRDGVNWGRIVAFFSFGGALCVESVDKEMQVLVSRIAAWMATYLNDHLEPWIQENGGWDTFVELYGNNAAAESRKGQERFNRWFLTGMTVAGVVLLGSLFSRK
Protocol: as §1

BCL2-A1 = molecular target: T2, BCL2-A1 (Homo sapiens, UniProt Q16548); assay: Time-resolved FRET binding assay; conditions: TR-FRET, individual determinations; read-out: Individual Ki, BCL2-A1
T2 sequence (Q16548 1-175): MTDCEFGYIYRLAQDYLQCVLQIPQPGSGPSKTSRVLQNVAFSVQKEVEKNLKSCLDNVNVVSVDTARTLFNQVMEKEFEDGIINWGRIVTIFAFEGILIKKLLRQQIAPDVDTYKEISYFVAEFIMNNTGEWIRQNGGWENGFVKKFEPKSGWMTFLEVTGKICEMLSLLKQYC
Protocol: as §1

BCL-2 = BCL-2 (Homo sapiens, UniProt P10415); assay: Time-resolved FRET binding assay; conditions: TR-FRET
Chain of BCL-2 (P10415 whole entry): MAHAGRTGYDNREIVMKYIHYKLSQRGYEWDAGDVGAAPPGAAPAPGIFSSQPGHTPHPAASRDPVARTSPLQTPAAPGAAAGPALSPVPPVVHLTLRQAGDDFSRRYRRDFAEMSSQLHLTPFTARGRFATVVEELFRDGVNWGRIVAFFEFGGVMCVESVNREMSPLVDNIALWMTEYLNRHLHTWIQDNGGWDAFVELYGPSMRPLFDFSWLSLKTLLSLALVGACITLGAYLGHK
Protocol: as §1

SKBR3 cells = assay: Cell viability of parental and BAK-, BAX-, BCL2L11-, PMAIP1-deficient SKBR3 cells (CellTiter-Glo); type: cell-based; conditions: SKBR3, 24 h
Protocol: Fig. 2 Apoptosis induced by ABBV-467 is mechanism based and induces cell death in MCL-1-dependent cell lines after short target engagement periods. H929 cells were treated with ABBV-467 in the presence or absence of the pan-caspase inhibitor z-VAD-fmk (50 µM) and the impact on caspase-3/7 activation (a), mitochondrial membrane potential (ΔΨm; b), and apoptosis (c) determined. Alternatively, BAK-deficient SKBR3 cells were treated with ABBV-467 for 24 h and the impact on cell viability compared with the parental cell line, determined by CellTiter-Glo. Inset depicts a western blot of BAK and BAX expression in SKBR3 cell variants using GAPDH as a loading control. Each of the 3 proteins were probed on separate blots (d). Data in (a–d) are presented as the mean ± standard error of the mean. H929 and AMO-1 cells were treated with ABBV-467 at the indicated concentrations and the impact on caspase-3/7 activation and viability (DRAQ7-positive) cells determined over time by Incucyte®. Data are presented as the mean ± standard deviation (e). H929 or AMO-1 cells were cultured in media containing 10% human serum and treated with ABBV-467 for the indicated contact times. Cells were subsequently washed 3 times with drug-free media and incubated in drug-free media for the remainder of the 24-h treatment period at 37 °C before cell viability was determined by CellTiter-Glo. Mean EC50 and EC90 values were determined from the resulting dose-response curves from at least 3 independent experiments, each assessed in quadruplicate, and depict the mean ± standard error of the mean. Presented ABBV-467 dose-response curves in H929 and AMO-1 cells were compiled from at least 3 independent experiments (f).
Supplementary Fig. S5: SKBR3 cells deficient in BAX, BAK , PM AIP 1 (gene encoding the protein NOXA),
BCL 2L 11 (gene encoding the protein BIM) were treated with ABBV-467 for 24 hours and the impact on
cell death compared to the parental cell line determined by CellTiter- Glo™.

Cc1c(Cl)c2c(Cl)c(C)c1-c1c(-c3ccc(F)cc3)sc3ncnc(c13)O[C@@H](C(=O)O)Cc1cc(ccc1OCc1ccnc(-c3ccc(OC[C@H]4COCCO4)cc3)n1)OC[C@@H](CN1CCN(C)CC1)O2 [ABBV-467]
impact on cardiovascular endpoints (anatomic, clinical pathology, and/or function) ([1]; multidose GLP toxicity study): No direct impact | reversibility of toxicities ([1]; after a 4-week recovery period): partially or fully reversible | primary target organs of apoptosis/single-cell necrosis ([1]; once-weekly dosing): pancreas, liver, gastrointestinal tract, and the hematopoietic system | Ki (BCL-W; TR-FRET, arithmetic mean, read-out: Arithmetic Mean Ki, BCL-W): > 247 nM | Ki (BCL-W; TR-FRET, individual determinations, read-out: Individual Ki, BCL-W): > 247 nM | Ki (BCL-W; read-out: TR-FRET, Ki, nM BCL-W): > 247 nM | Ki (BCL-XL; TR-FRET, arithmetic mean, read-out: Arithmetic Mean Ki, BCL-XL): > 376 nM | Ki (BCL-XL; TR-FRET, individual determinations, read-out: Individual Ki, BCL-XL): > 376 nM | Ki (BCL-XL; read-out: TR-FRET, Ki, nM BCL-XL): > 376 nM | Ki (BCL2-A1): 402 nM and > 468 nM (2×) | Ki (BCL-2; arithmetic mean, read-out: Arithmetic Mean Ki, BCL-2): > 642 nM | Ki (BCL-2; individual determinations, read-out: Individual Ki, BCL-2): > 642 nM | effect of BAK deletion on activity (SKBR3 cells): completely inhibited | effect of deletion of BAX, BIM or NOXA genes on activity (SKBR3 cells): did not impact activity
